Source: patent US11530190B2, “Compounds for treating mitochondrial disease” (Khondrion IP B.V., priority 2015, dated 2022)

Legend:
[1] = system: fibroblasts from healthy individuals; assay: Effect of BSO on viability of fibroblasts from healthy individuals, Calcein-AM; type: cell-based, human; conditions: BSO 200 μM, 48 h; FIG. 1
Procedure: FIG. 1. Effect of L-buthionine-(S,R)-sulfoximine (BSO), an inhibitor of glutathione synthesis, on the viability of primary human fibroblasts derived from healthy individuals or derived from Complex-I deficient patients. Two days after treatment of 48 h with 200 μM BSO, cells were washed and stained with Calcein-AM. Cell viability was determined as a function of fluorescence intensity.
(§1) Methods: To assess the ability of the compounds to protect patient cells against oxidative stress-induced cell death an assay was established using stressed primary human fibroblasts derived from a Complex-I deficient patient. Utilizing the inherent oxidative stress of fibroblasts from patients with mitochondrial disease, their oxidative burden was further increased by depleting cellular glutathione with an inhibitor of glutathione synthesis, L-buthionine-(S,R)-sulfoximine (BSO).

[2] = system: primary human fibroblasts derived from a Complex-I deficient patient; assay: Protection against oxidative stress-induced (BSO) cell death, Calcein-AM viability; type: cell-based
Text: as §1
Cells were seeded at a density of 3000 cells/well in a 96-well format plate and incubated with increasing concentrations of compounds in combination with BSO (200 μM, Sigma-Aldrich). Two days after treatment, the cells were washed twice and stained with a solution of 5 μM Calcein-AM (Life technologies C3100MP) during 25 min in 199 medium without phenol red (Life technologies, 11043-023) at 37° C., 5% CO2. After 2 washes with PBS the plate was read on a fluorescence plate reader (Fluostar Omega, BMG labtech) and the percentage of cell viability was determined as a function of fluorescence intensity (FIG. 2).

[3] = system: Primary human fibroblasts derived from a patient with mitochondrial disease; assay: Cellular ROS levels after H2O2 induction, CM-H2DCFDA fluorescence; type: cell-based; conditions: compound 10 μM, H2O2 100 μM; FIG. 3
Text: Methods: CM-H2DCFDA is a cell-permeable reporter molecule for reactive oxygen species (ROS) that is converted into non-fluorescent and membrane-impermeable CM-H2DCF following removal of its acetate groups by intracellular esterases. Upon oxidation by ROS, CM-H2DCF is converted into fluorescent CM-DCF. It is widely accepted that a wide variety of ROS can be responsible for the CM-H2DCF oxidation, making it a suitable reporter of cellular oxidant levels. The average cellular CM-DCF fluorescence intensity is considered an indirect measure of cellular ROS levels.
The effect of the compounds on the intracellular ROS levels was measured in response to an induction of ROS by hydrogen peroxide. Primary human fibroblasts derived from a patient with mitochondrial disease were seeded at a density of 2500 cells/well in a 96-well format plate. […] Wells without cells were used to correct for the background fluorescence. The plate was read on a fluorescence plate reader (Fluostar Omega, BMG labtech) in a kinetic mode with a 2 min interval cycle. After 4 cycles, H2O2 (final concentration 100 μM) was added using onboard injectors and the fluorescence measurement was resumed for 1 hour. After background correction the fluorescence intensities were plotted as a function of time.

[4] = system: Primary human fibroblasts obtained from a patient with mitochondrial disease; assay: Intracellular superoxide production, hydroethidine (HEt) fluorescence microscopy; type: cell-based; conditions: approximately 24 hours with increasing concentrations, HEt 10 μM; FIG. 4A-E
Procedure: Methods: HEt (Hydroethidine) is a non-fluorescent compound, which can enter the cells freely. There it is oxidized by superoxide to its fluorescent products E^+ and 2OHE^+, which accumulate in negatively charged cellular compartments (i.e. nucleus and mitochondria). E^++2OHE^+ fluorescence is thus considered a measure of superoxide production within the cell.
The effect of the compounds on the intracellular superoxide levels was measured. Primary human fibroblasts obtained from a patient with mitochondrial disease were seeded at a density of 3000 cells/well in a 96-well format. The following day, the culture medium was replaced with 100 μl medium containing the compounds at different concentrations. After approximately 24 hours the cells were incubated with 100 μL medium without FBS and phenol red and containing HEt at a final concentration 10 μM (Life Technologies). The cell culture plate containing HEt was placed for 10 minutes at 37° C., 5% CO2. Next, the cells were washed twice with medium, placed in culture medium without FBS and phenol red and visualized by fluorescence microscopy (BD Pathway 855, BDBiosciences). From the obtained images superoxide levels were analysed using Image Pro plus (Media Cybernetics) software.

[5] = system: cultured healthy human skin fibroblasts; conditions: cited from earlier work

| Structure (SMILES) | H2O2-mediated induction of cellular ROS levels (CM-DCF fluorescence) [3] | superoxide scavenging / superoxide levels (HEt fluorescence) [4] | also measured |
| --- | --- | --- | --- |
| CCCCS(=N)(=O)CCC(N)C(=O)O [BSO, L-buthionine-(S,R)-sulfoximine] | – | – | viability of fibroblasts from healthy individuals after BSO insult [1]: retained full viability; viability of patient fibroblasts after BSO insult ([2]; BSO 200 μM alone, within 48 h, FIG. 1): complete cell death |
| CC(C)=CCC/C(C)=C/CC/C(C)=C/CC[C@@](C)(O)CCC1=C(C)C(=O)C(C)=C(C)C1=O [EPI743] | slightly diminished | only a limited ability to scavenge superoxide | EC50 ([2]; 200 μM BSO, two days, Calcein-AM cell viability, formate salt, read-out: EC50 in protecting the cells against oxidative stress-induced cell death): 35.3 nM |
| COC1=C(OC)C(=O)C(CCCCCCCCCCO)=C(C)C1=O [Idebenone] | slightly diminished | only a limited ability to scavenge superoxide | – |
| Cc1c(C)c2c(c(C)c1O)CCC(C)(C(=O)O)O2 (centres unmarked) [Trolox, 6-hydroxy-2,5,7,8-tetramethylchroman-2-carboxylic acid] | – | – | levels of ROS [5]: reduces the levels of ROS |
